Like-named read-outs stand apart in the source and are kept apart here.

The source of these data is patent US20070054262A1, “Methods of identifying optimal variants of peptide epitopes” (priority 2003, published 2007).

The subject of one data set is Gag 271 variants. The experiment in a line: Gag 271 variant immunogenicity tested using HLA-A2 transgenic mice. It is filed as in vivo. To be noted: 167 HIV variants. From the text:
This particular group of 21 epitopes was selected based on their identity conservation in Clade B HIV sequences, with conservation across HIV clades as a secondary consideration. Because of this criteria, the form of epitope chosen as the parent peptide was not the most common variant (e.g. Gag 386, Gag 271, Pol 98). In some cases (e.g., see Gag 386 data), the “parent” epitope and the most common variant were recognized to the same extent. However, in some cases the selection of epitope to include as the “parent” epitope was predicted to make a difference in the immunological conservation. An example of this was the Gag 271 epitope (FIG. 4). The variant most commonly seen in clade B sequences was the […] form, while the most common form of the epitope was […]. Not all amino acids are considered equal to each other in their ability to substitute (Tangri). For example, asparagine (N) is considered a conservative substitution for serine (S), while the opposite substitution in only considered semi-conserved. When the program calculated immunological conservation using the […] peptide as the parent peptide, only two variants were predicted to be immunogenic. […] This prediction was tested using HLA-A2 transgenic mice. […] This has important implications in epitope selection for vaccine development, and epitope performance can be predicted.

The test system of data set [1] is Env 134-specific T cell line. The experiment in a line: Env 134-specific T cell line (stimulated five times with the immunizing peptide): recognition and titration of variant peptides. The class given is cell-based, mouse. Conditions: Env 134 line; for Affinity reduced from the parent peptide: peptide titration; for Peptide concentration at which any IFN-γ secretion was detected: highest peptide concentration examined; for Enrichment of CTL able to recognize the peptide: one versus five stimulations.

The subject of data set [2] is CTL primed against the parent peptide. In words: Recognition of variant peptides by CTL from DNA-immunized HLA-A11/K^b transgenic mice (IFN-γ secretion after restimulation of splenocytes). To be noted: parent Pol 98. It is filed as cell-based. From the text:
Variants corresponding to five HLA-A2 and -A3 restricted epitopes from 167 HIV varianst were identified and synthesized. These represented all the complete sequences in the Los Alamos database at the time (116 strains), as well as 51 complete clade C sequences from Botswana, and included 22 subtype B and 62 subtype C sequences. These peptides were then characterized with regard to MHC binding, variant distribution, and immunogenicity. To measure immunogenicity, HLA-A2/K^b or HLA-A11/K^b transgenic mice were immunized with the epitopes encoded in a DNA based format ( ). Eleven days after immunization, splenocytes were restimulated with either the epitope corresponding to the epitope encoded by the DNA (parent) or each of the variant peptides. After 6 days in culture, IFN-γ secretion was measured in response to the peptide used to stimulate each culture.

The subject of data set [3] is Gag 386-specific T cell line. The experiment in a line: Gag 386-specific T cell line (stimulated five times with the immunizing peptide): recognition and titration of variant peptides. The class given is cell-based, mouse. Conditions: Gag 386 line; for Peptide affinity (titration against CTL stimulated 5 times with the parent peptide): IFN-γ. From the text:
Recognition after multiple restimulations The observed recognition of variant peptides by CTL raised against the parent peptide might be due to either promiscuous recognition at the level of a single TCR or simply a mixture of TCRs against the immunizing peptide which are each able to recognize subtly different peptides. To distinguish between these two possibilities, Env 134- or Gag 386-specific T cell lines were generated by stimulating five times with the immunizing peptide, and then tested for recognition of a partial panel of variant peptides. These T cell lines were also characterized for Vβ TCR usage against a panel of antibodies predicted to react with the TCR of the mouse strains utilized for these experiments.
Because the SU is a measure of the number of cells needed to secrete a defined amount of IFN-γ, a higher SU value would correspond to an enrichment of IFN-γ, producing cells.
Both lines were also characterized with regard to the affinity of certain of the variant peptides by titrating the variant peptides examined above (Table 5A and 5B).

The next data set deals with HLA-DR molecules. Conditions: cited from earlier work.
Another data set relates to normal human T cells. It is filed as cell-based.
Data set [4] concerns patients with recurrent or residual cervical carcinoma. Conditions: co-emulsified with HPV-derived CTL epitopes, cited from earlier work.

Turning to MTSNPPIPV, the “Variants that would be recognized if this form of the peptide was utilized in vaccines” value in the data set with Gag 271 variants was “approximately 152 of 167 variants”.
On to KITPLCVTL [Env 134 variant], for which the “Affinity reduced from the parent peptide” value in data set [1] is on record as “approximately 10 fold”.
Regarding VSIKVGGQIK, the “Recognition relative to the parent peptide” value in data set [2] is recorded as ≤ 10 fold.
“VLAEAMSQI [Gag 386 single anchor variant]”: the “Peptide affinity (titration against CTL stimulated 5 times with the parent peptide)” value (shortened to “Peptide affinity”) in data set [3] was “highest affinity”.
Consider MTNNPPIPV, for which the “Variants that would be recognized if this form of the peptide was utilized in vaccines” value in the data set with Gag 271 variants was 39 of 167 variants.
As for QYIKANSKFIGITE [TT 830-843], the DR molecules bound entry with HLA-DR molecules was “seven”. Moreover, in the data set with normal human T cells, the “Antigen concentration at which the 10,000 cpm proliferation level was reached” value was “about 10,000 ng/ml” and the “Donors with primary T cell responses” value was 2.
On to aKXVAAWTLKAAa-NH2 [PADRE®], for which, in the data set on normal human T cells, the “Potency relative to TT 830-843 antigen for activation of T cell responses, on a molar basis” value is listed as “about 100 fold”. The “Donors with primary T cell responses” value in the data set on normal human T cells (three normal donors tested) is “three”. For the same substance, in data set [4], the Safety entry is listed as “favorable safety profile”. Further, in data set [4] (immunocompromised patients), the “Patients in whom PADRE T cell reactivity was detected” value is listed as “four”.
For the substance VLAEAMSQV [Gag 386], the “Peptide affinity” value in data set [3] is recorded as “highest affinity”.
As for KLTPFCVTL [Env 134 variant], in data set [1], the “Activity as measured by SU after five restimulations” value (“Activity as measured by SU” below) is recorded as “lowest activity”, the “Peptide concentration at which any IFN-γ secretion was detected” value (from here on “Peptide concentration”) came out at 1 µg/mL and the “Enrichment of CTL able to recognize the peptide” value (from here on “Enrichment of CTL able”) is on record as “little or no enrichment”.
For the substance KLTPLCVIL [Env 134 variant], in data set [1], the “Activity as measured by SU” value is given as “lowest activity”, the “Peptide concentration” value amounted to 1 µg/mL and the “Enrichment of CTL able” value was “little or no enrichment”.
The corresponding values for KLTPLCVPL [Env 134 variant] are “lowest activity”, 1 µg/mL and “little or no enrichment”.
The corresponding values for ELTPLCVTL [Env 134 variant] are “lowest activity”, 1 µg/mL and “little or no enrichment”.
In the case of QLTPLCVTL [Env 134 variant], the “Affinity reduced from the parent peptide” value in data set [1] is reported as ~100 fold.
For the substance ILAEAMSKA [Gag 386 variant], in data set [3], the “Recognition of variant peptides (SU, IFN-γ), one versus five peptide stimulations” value is “never recognized” and the “Peptide affinity” value is on record as “not recognized”.
For the substance QITPLCVTL [Env 134 variant], in data set [1], the “Activity as measured by SU” value is reported as “lowest activity”, the “Peptide concentration” value is 1 µg/mL and the “Enrichment of CTL able” value is on record as “little or no enrichment”.
